Molecular target: ROCK2 (Homo sapiens (Human), UniProt O75116)
Assay: ROCK2 assay (peptide phosphorylation, LABCHIP 3000 Reader)
Format: biochemical
Conditions: 5 μM ATP, 1.5 μM peptide substrate
Procedure: The effectiveness of compounds of the present invention as ROCK inhibitors can be determined in a 30 μL, assay containing 20 mM HEPES, pH 7.5, 20 mM MgCl2, 0.015% Brij-35, 4 mM DTT, 5 μM ATP and 1.5 μM peptide substrate (FITC-AHA-AKRRRLSSLRA-OH). Compounds were dissolved in DMSO so that the final concentration of DMSO was <2%, and the reaction was initiated with Rho kinase variants. After incubation, the reaction was terminated by the addition of EDTA and the phosphorylated and non-phosphorylated peptides separated using a LABCHIP® 3000 Reader (Caliper Life Sciences). […] Compounds were tested in dose-response format, and the inhibition of kinase activity was calculated at each concentration of compound. The inhibition data were fit using a curve-fitting program to determine the IC50; i.e., the concentration of compound required to inhibit 50% of kinase activity.
Representative Examples were tested in the ROCK2 assay described above and found having ROCK2 inhibitory activity.

ROCK2, sequence (O75116 whole entry, species assumed): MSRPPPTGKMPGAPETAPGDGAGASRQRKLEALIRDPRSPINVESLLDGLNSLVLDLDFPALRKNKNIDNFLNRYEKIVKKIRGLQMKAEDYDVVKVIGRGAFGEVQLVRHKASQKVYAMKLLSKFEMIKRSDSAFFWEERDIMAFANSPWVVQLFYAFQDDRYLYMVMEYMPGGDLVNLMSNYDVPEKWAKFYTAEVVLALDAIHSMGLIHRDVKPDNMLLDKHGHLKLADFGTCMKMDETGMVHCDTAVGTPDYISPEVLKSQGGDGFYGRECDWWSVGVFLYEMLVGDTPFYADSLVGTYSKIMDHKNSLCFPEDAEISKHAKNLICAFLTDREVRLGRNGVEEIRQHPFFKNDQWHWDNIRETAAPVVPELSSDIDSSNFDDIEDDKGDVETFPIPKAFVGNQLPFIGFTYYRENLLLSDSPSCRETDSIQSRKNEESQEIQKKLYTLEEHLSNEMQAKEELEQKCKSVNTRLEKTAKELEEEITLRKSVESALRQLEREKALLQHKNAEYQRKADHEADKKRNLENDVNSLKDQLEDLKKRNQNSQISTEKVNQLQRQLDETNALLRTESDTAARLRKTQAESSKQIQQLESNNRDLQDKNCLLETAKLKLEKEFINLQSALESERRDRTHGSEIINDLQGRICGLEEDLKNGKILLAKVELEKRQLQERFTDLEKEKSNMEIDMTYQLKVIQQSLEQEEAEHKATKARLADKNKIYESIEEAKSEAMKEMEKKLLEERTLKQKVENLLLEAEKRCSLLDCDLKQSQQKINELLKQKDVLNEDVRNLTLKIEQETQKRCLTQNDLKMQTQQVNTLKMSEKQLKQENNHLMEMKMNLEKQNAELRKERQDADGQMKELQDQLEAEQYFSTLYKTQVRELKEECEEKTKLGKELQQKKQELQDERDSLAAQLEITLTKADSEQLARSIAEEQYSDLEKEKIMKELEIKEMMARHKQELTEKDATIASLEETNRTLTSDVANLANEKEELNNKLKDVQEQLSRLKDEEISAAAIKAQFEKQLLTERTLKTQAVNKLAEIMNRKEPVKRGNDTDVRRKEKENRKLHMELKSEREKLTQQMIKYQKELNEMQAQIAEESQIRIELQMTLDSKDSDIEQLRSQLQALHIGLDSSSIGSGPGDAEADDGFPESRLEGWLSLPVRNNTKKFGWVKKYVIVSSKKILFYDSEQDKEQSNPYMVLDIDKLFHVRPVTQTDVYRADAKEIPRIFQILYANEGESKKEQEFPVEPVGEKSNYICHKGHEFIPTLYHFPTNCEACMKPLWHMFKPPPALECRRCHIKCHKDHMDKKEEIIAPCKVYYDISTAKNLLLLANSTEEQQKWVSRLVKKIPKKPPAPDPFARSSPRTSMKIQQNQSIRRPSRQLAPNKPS

Row | SMILES | IC50
1 | COc1cccc(Cn2nc(C)n(-c3ccc(-c4cn[nH]c4)cc3OC)c2=O)c1 [Example 64, 4-(2-methoxy-4-(1H-pyrazol-4-yl)phenyl)-1-(3-methoxybenzyl)-3-methyl-1H-1,2,4-triazol-5(4H)-one] | 250 to 2000 nM
2 | COc1cc(-n2c(C)nn(Cc3cccc(F)c3)c2=O)ccc1-c1cn[nH]c1 [Example 65, 1-(3-fluorobenzyl)-4-(3-methoxy-4-(1H-pyrazol-4-yl)phenyl)-3-methyl-1H-1,2,4-triazol-5(4H)-one] | 250 to 2000 nM
3 | COc1cc(-n2c(C)nn(CCc3ccccc3)c2=O)ccc1-c1cn[nH]c1 [Example 66, 4-(3-methoxy-4-(1H-pyrazol-4-yl)phenyl)-3-methyl-1-phenethyl-1H-1,2,4-triazol-5(4H)-one] | 50 to 250 nM
4 | Cc1nn(CCc2ccccc2)c(=O)n1-c1ccc(-c2cn[nH]c2)cc1 [Example 67, 4-(4-(1H-pyrazol-4-yl)phenyl)-3-methyl-1-phenethyl-1H-1,2,4-triazol-5(4H)-one] | 250 to 2000 nM
5 | COc1cc(-n2c(C)nn(Cc3cc(F)ccc3F)c2=O)ccc1-c1cn[nH]c1 [Example 68, 1-(2,5-difluorobenzyl)-4-(3-methoxy-4-(1H-pyrazol-4-yl)phenyl)-3-methyl-1H-1,2,4-triazol-5(4H)-one] | 250 to 2000 nM
6 | COc1cccc(Cn2nc(C)n(-c3ccc(-c4cn[nH]c4)cc3)c2=O)c1 [Example 69, 4-(4-(1H-pyrazol-4-yl)phenyl)-1-(3-methoxybenzyl)-3-methyl-1H-1,2,4-triazol-5(4H)-one] | 250 to 2000 nM
7 | Cc1nn(Cc2cccc(F)c2)c(=O)n1-c1ccc(-c2cn[nH]c2)cc1 [Example 70, 4-(4-(1H-pyrazol-4-yl)phenyl)-1-(3-fluorobenzyl)-3-methyl-1H-1,2,4-triazol-5(4H)-one] | 250 to 2000 nM
8 | Cc1nn(Cc2cc(F)ccc2F)c(=O)n1-c1ccc(-c2cn[nH]c2)cc1 [Example 71, 4-(4-(1H-pyrazol-4-yl)phenyl)-1-(2,5-difluorobenzyl)-3-methyl-1H-1,2,4-triazol-5(4H)-one] | 250 to 2000 nM
9 | COc1cc(F)cc(Cn2nc(C)n(-c3ccc(-c4cn[nH]c4)cc3)c2=O)c1 [Example 72, 4-(4-(1H-pyrazol-4-yl)phenyl)-1-(3-fluoro-5-methoxybenzyl)-3-methyl-1H-1,2,4-triazol-5(4H)-one] | 250 to 2000 nM
10 | Cc1nn(C(C)c2ccccc2)c(=O)n1-c1ccc(-c2cn[nH]c2)cc1 (stereo not shown) [Example 73, 4-(4-(1H-pyrazol-4-yl)phenyl)-3-methyl-1-(1-phenylethyl)-1H-1,2,4-triazol-5(4H)-one] | 250 to 2000 nM
11 | COc1cc(-c2cn[nH]c2)ccc1-n1c(C)nn(Cc2cccc(F)c2)c1=O [Example 74, 1-(3-fluorobenzyl)-4-(2-methoxy-4-(1H-pyrazol-4-yl)phenyl)-3-methyl-1H-1,2,4-triazol-5(4H)-one] | 250 to 2000 nM
12 | COc1cc(-c2cn[nH]c2)ccc1-n1c(C)nn(C(C)c2ccccc2)c1=O (stereo not shown) [Example 75, 4-(2-methoxy-4-(1H-pyrazol-4-yl)phenyl)-3-methyl-1-(1-phenylethyl)-1H-1,2,4-triazol-5(4H)-one] | 250 to 2000 nM
13 | COc1cc(F)cc(Cn2nc(C)n(-c3ccc(-c4cn[nH]c4)cc3OC)c2=O)c1 [Example 76, 1-(3-fluoro-5-methoxybenzyl)-4-(2-methoxy-4-(1H-pyrazol-4-yl)phenyl)-3-methyl-1H-1,2,4-triazol-5(4H)-one] | 250 to 2000 nM
14 | COc1cc(-c2cn[nH]c2)ccc1-n1c(C)nn(CCc2ccccc2)c1=O [Example 77, 4-(2-methoxy-4-(1H-pyrazol-4-yl)phenyl)-3-methyl-1-phenethyl-1H-1,2,4-triazol-5(4H)-one] | 250 to 2000 nM
15 | COc1cc(-c2cn[nH]c2)ccc1-n1c(C)nn(Cc2cc(F)ccc2F)c1=O [Example 78, 1-(2,5-difluorobenzyl)-4-(2-methoxy-4-(1H-pyrazol-4-yl)phenyl)-3-methyl-1H-1,2,4-triazol-5(4H)-one] | 50 to 250 nM
16 | Cc1nn(-c2ccc(-c3cn[nH]c3)cc2)c(=O)n1Cc1ccccc1 [Example 79, 1-(4-(1H-pyrazol-4-yl)phenyl)-4-benzyl-3-methyl-1H-1,2,4-triazol-5(4H)-one] | 5 to 50 nM

Reference: US10562887B2, “Triazolones and tetrazolones as inhibitors of ROCK” (BRISTOL-MYERS SQUIBB COMPANY, priority 2016, dated 2020)
